From patent US8221736B2, “Semiochemical” (Rothamsted Research Limited, priority 1999, dated 2012)
Marks after values point to notes of the source that are not given here.

Tests used:
[1] = system: D251 sequence in Vicia faba plants; assay: Differential display and northern blot of gene-specific sequence D251; format: in vivo; settings: northern blot, versus air
Experimental: Total RNA was isolated from stem or leaf tissue of plants exposed to air, methyl jasmonate or cis-jasmone. 10 μg RNA per sample was loaded and separated on a formaldehyde gel (Panel A). The samples were then transferred to a nylon membrane and probed with the D251 sequence (Panel B). Lane 1=air treatment (control); lane 2=cis-jasmone treatment; lane 3=methyl jasmonate treatment. In the case of RNA isolated from leaf tissue, only cis-jasmone treatment results in upregulation. In order to determine if cis-jasmone was capable of inducing alterations in plant gene expression, the sensitive technique of differential display was carried out on RNA extracted from plants which had been exposed to air, methyl jasmonate or cis-jasmone. […] To confirm this observation, bands of interest were recovered by excision from the dried gel and re-amplified with the appropriate pair of oligonucleotide primers. The resulting PCR products were cloned and sequenced to confirm the homogeneous nature of the amplified product. These sequences were then used to probe RNA isolated from control or treated V. faba plants. […] It is important to note that the nature of the differential display technique generates short gene-specific probes, containing mainly 3′ untranslated regions of transcribed sequences, and therefore the functional part of the differentially expressed gene is unknown. Thus, using differential display and confirmatory northern blotting, we have shown that methyl jasmonate and cis-jasmone have apparently distinct effects on plant gene expression. […] Thus, the two compounds have distinct effect on plant gene expression and the response to these signalling compounds may be tissue-specific.

[2] = system: broad bean, V. faba (cv The Sutton); assay: Induction of volatile release by bean plants (air entrainment, GC/GC-MS); format: in vivo, Vicia faba; settings: 24 hour exposure at 100 μg/l in air; 48 hour entrainments
Experimental: A possible role for the compound as an airborne plant signal was investigated using the broad bean, V. faba (cv The Sutton). Plants were kept for 24 hours in clean air or in air incorporating cis-jasmone at 100 μg/l; subsequently, samples of volatiles released by the plants were obtained by entrainment over 4 periods of 48 hours, i.e. up to 192 hours after the end of the treatment. The cis-jasmone itself was undetectable after 48 hours. […] There was also, from some replicates, enhancement of (E,E)-α-farnesene, (−)-β-caryophyllene and (E)-4,8-dimethyl-1,3,7-nonatriene. These compounds have all been implicated in herbivorous insect-induced production and increased parasitoid foraging. The nonatriene can also be produced innately by plants imitating damage for defence against herbivores and which are thus attractive to parasitoids.
Bean plants, V. faba (cv The Sutton) were grown under standard glasshouse conditions until the 2-4 leaf stage when they were rinsed free of soil and transplanted into baked glass jars containing washed sand, with 3 plants per jar. These were left for 1-2 days to acclimatize. Plants to be treated (three jars of three plants each) were sealed in a 25 l glass tank for 24 hours with either cis-jasmone or methyl jasmonate (2.5 mg) applied to a piece of filter paper (Whatman No. 1) placed on the floor of the tank. […]

[3] = system: black bean aphid, Aphis fabae; settings: J. Chem. Ecol. 20 (1994), Pettersson et al., Hardie et al.; cited from earlier work
[4] = system: grain aphid, Sitobion avenae; settings: J. Chem. Ecol. 20 (1994), Pettersson et al., Hardie et al.; cited from earlier work
[5] = system: aphid parasitoid Aphidius ervi; assay: Wind tunnel single choice test of A. ervi with synthetic compounds on filter paper; format: in vivo; settings: 10 μg on filter paper, hexane control 26.7
Source text: Since semiochemicals acting as repellents or inhibitors of host attractancy for herbivorous insects are often involved in predation or parasitism, the activity of cis-jasmone was also investigated at higher trophic levels. […] These experiments indicate a behavioural role for cis-jasmone in influencing interactions between plants, herbivorous insects and their predators and parasitoids. Naive female A. ervi were flown in a wind tunnel, as described in J. Chem. Ecol. 16, 381-396 (1996) (Poppy et al.). The parasitoids were released 25 cm downwind (single choice tests) or 40 cm downwind (dual choice test) of the target, which was either a plant or a synthetic compound (10 μg in 10 μl hexane) placed on a 2×1 cm strip of filter paper (Whatman No. 1) surrounded by a ring of green crêpe paper. The proportions of parasitoids responding with an oriented flight to the synthetic chemicals were calculated each day on 3 separate days. These values were then subjected to a logit transformation to normalize the data before being analysed by ANOVA followed by Tukey post-hoc tests. The number of parasitoids orienting upwind to the single plant target were recorded and subjected to a χ^2 contingency test (Pearson method on Genstat—see Genstat 5 Committee. Genstat 5 Reference Manual, Release 3 (Clarendon Press, Oxford, 1993)) to determine whether an orienting response was linked to the type of plant treatment. The numbers orienting to each plant in the dual choice test were analysed by a χ^2 to determine whether one plant was more attractive than the other.

CC/C=C\CC1C(=O)CCC1CC(=O)OC (stereo not shown) [methyl jasmonate, reference compound]
expression of D251 sequence in leaf tissue ([1]; RNA from leaf tissue of plants exposed to vapour): only cis-jasmone brought about an increase
expression of D251 sequence in stem tissue ([1]; RNA from stem tissue of plants exposed to vapour): upregulated to a similar level
effect on levels of (E)-β-ocimene released [2]: did not significantly increase

COC(=O)c1ccccc1O [Methyl salicylate]
behavioural effect on black bean aphid [3]: repelling
behavioural effect on cereal aphids including the grain aphid [4]: repelling

C=C/C(C)=C/CC=C(C)C [(E)-β-ocimene]
% showing oriented flight [5]: 48.8^a %

C=C/C(C)=C/C/C=C(\C)CCC=C(C)C [(E,E)-α-farnesene]
% showing oriented flight [5]: 60.9^a %
